The results in this text go back to ChEMBL document CHEMBL3352655, “Synthesis and biological evaluation of norcantharidin derivatives as protein phosphatase-1 inhibitors” (Bioorg Med Chem Lett, 2015).

Active and inactive are the calls of the source. No cut-off for these calls is given here. A value given as a limit tells only on which side of the number the result lay.

In data set [1] the test system is HepG2. The experiment in a line: Cytotoxicity against human HepG2 cells after 48 hrs by MTT assay. Type of data set: functional, cell-based. To be noted: HepG2, 48 h. A general note: Tetrazolium assays rely on reduction of a dye to a coloured formazan, in cell work by metabolically active cells.
Data set [2] deals with HeLa. The experiment in a line: Cytotoxicity against human HeLa cells after 48 hrs by MTT assay. The format is functional, cell-based.
Data set [3] can be described thus: Cytotoxicity against human WI38 cells after 48 hrs by MTT assay. Type of data set: cell-based. To be noted: WI-38, 48 h.
The subject of data set [4] is A549. The experiment in a line: Cytotoxicity against human A549 cells after 48 hrs by MTT assay. Type of data set: functional, cell-based. As to conditions: A549, 48 h.
Data set [5] is described as follows: Partition coefficient, log P of the compound. The format is physicochemical. To be noted: octanol/water.
A short description of data set [6]: Cytotoxicity against human HCT8 cells after 48 hrs by MTT assay. Type of data set: functional, cell-based. To be noted: HCT-8, 48 h.
The nature of data set [7]: (§1) Inhibition of protein phosphatase-1 (unknown origin) using phosphopeptide (Lys-Arg-pThr-Ile-Arg) substrate incubated for 60 mins by colorimetric analysis based serine/threonine assay. The arrangement: species or system Homo sapiens.
Data set [8] relates to HeLa. The experiment in a line: Induction of nuclear fragmentation in human HeLa cells at 5 uM after 24 hrs by DAPI staining based immunofluorescence assay. Type of data set: functional, cell-based.
Data set [9] concerns HeLa. The experiment in a line: Induction of nuclear condensation in human HeLa cells at 5 uM after 24 hrs by DAPI staining based immunofluorescence assay. Type of data set: functional, cell-based.
For data set [10], the system named is Calf thymus DNA. The experiment in a line: Binding affinity to calf thymus DNA assessed as reduction in fluorescence intensity of compound-DNA complex at 1 uM by fluorescence spectroscopy. The format is nucleic-acid assay. To be noted: Bos taurus.
Data set [11] concerns HeLa. The experiment in a line: Inhibition of microtubule formation in human HeLa cells at 5 uM after 24 hrs by DAPI staining based immunofluorescence assay. Type of data set: functional, cell-based.
For data set [12], the species on record is Homo sapiens. Described as §1.
Data set [13] deals with HeLa. The experiment in a line: Induction of cell shrinkage in human HeLa cells at 5 uM after 24 hrs by DAPI staining based immunofluorescence assay. Type of data set: functional.

For the molecule `CCN1CCN(S(=O)(=O)c2ccc(NC(=O)C3C(C(=O)O)[C@H]4CC[C@@H]3O4)cc2)CC1` (stereo not given in full), the IC50 (in general, the concentration that gives 50% inhibition) is 20.2 µM in data set [1]; 15.7 µM in [2]; 73.1 µM in [3]; 28.4 µM in data set [4]; 27.4 µM in [6]. Moreover, the logP (as a rule, a log measure of how a compound divides between an organic and an aqueous phase) in data set [5] worked out at 0.4.

For `O=C(Nc1ccc(S(=O)(=O)NC2CC2)cc1)C1C(C(=O)O)[C@H]2CC[C@@H]1O2` (stereo not given in full), the IC50 in data set [1] worked out at 26.2 µM; in data set [2], 20.9 µM; in data set [3], 52.1 µM; in [4], 34.3 µM; in [6] it was 28.3 µM. The same molecule gave a logP in data set [5] of 0.2.

Turning to `CCOC(=O)Cc1csc(NC(=O)C2C(C(=O)O)[C@H]3CC[C@@H]2O3)n1` (stereo not given in full), the IC50 in data set [1], in data set [2], in [3], in [4] and in data set [6] was more than 100 µM throughout. The molecule also showed a logP in data set [5] of 0.8.

Turning to `O=C1OC(=O)C2C3CCC(O3)C12` (stereo not given) [DEMETHYL-CANTHARIDIN], the IC50 is 24.7 µM in data set [1]; 12.4 µM in data set [2]; 26.7 µM in [3]; 12.1 µM in data set [4]; 2.6 µM in data set [7]; 28.4 µM in data set [6]. In data set [5], this molecule displayed a logP of 0.7.

With `O=C(Nc1ccc(S(=O)(=O)N2CCOCC2)cc1)C1C(C(=O)O)[C@H]2CC[C@@H]1O2` (stereo not given in full), the 50% inhibitory concentration (IC50) was 19.3 µM in [1]; 17.2 µM in [2]; 48.8 µM in data set [3]; 24.2 µM in data set [4]; 31.3 µM in data set [6]. In data set [5], this molecule yielded a logP of 0.4.

`O=C(Nc1ccc(S(=O)(=O)NC2CCCC2)cc1)C1C(C(=O)O)[C@H]2CC[C@@H]1O2` (stereo not given in full): the IC50 worked out at 22.3 µM in data set [1]; 17.6 µM in data set [2]; 59 µM in [3]; 20.1 µM in data set [4]; 30.2 µM in [6]. The logP in data set [5] was 0.2.

Take `O=C(Nc1ccc(S(=O)(=O)NC2CCCCC2)cc1)C1C(C(=O)O)[C@H]2CC[C@@H]1O2` (stereo not given in full): the IC50 came to 22.5 µM in data set [1]; 18.7 µM in [2]; 62.5 µM in data set [3]; 36.2 µM in data set [4]; 31 µM in data set [6]. The logP in [5] turned out to be 0.2.

As to `O=C1[C@@H]2[C@H](C(=O)N1c1ccc(S(=O)(=O)N3CCN(c4ccc(F)cc4)CC3)cc1)[C@@H]1CC[C@H]2O1`, the 50% inhibitory concentration (IC50) was determined as 25.6 µM in data set [1]; 18.6 µM in data set [2]; 51.8 µM in [3]; 25.8 µM in data set [4]; 2.3 µM in data set [7]; 32.1 µM in [6]. Besides, the logP in data set [5] stood at 1.4.

For the molecule `O=C1[C@@H]2[C@H](C(=O)N1c1ccc(S(=O)(=O)NC3CCCC3)cc1)[C@@H]1CC[C@H]2O1`, the 50% inhibitory concentration (IC50) was 23.5 µM in [1]; 20.7 µM in [2]; 40.3 µM in data set [3]; 32.5 µM in data set [4]; 32.8 µM in data set [6]. The molecule also showed a logP in [5] of 1.1.

As to `O=C(Nc1ccc(S(=O)(=O)N2CCN(c3ccc(F)cc3)CC2)cc1)C1C(C(=O)O)[C@H]2CC[C@@H]1O2` (single isomer, unassigned), the IC50 in [1] is 14.4 µM; in data set [2], 6.3 µM; in [3] it was 50.2 µM; in [4], 18.4 µM; in [7], 0.2 µM; in data set [6], 16.6 µM. For the same molecule, the outcome in data set [8], in [9], in [10] and in data set [13] was Active. Moreover, the inhibition result in data set [11] was “Active”. Also, in data set [12], the inhibition entry was “Dose-dependent effect”. Moreover, the logP in data set [5] is 0.6.

Regarding `O=C1[C@@H]2[C@H](C(=O)N1c1ccc(S(=O)(=O)N3CCOCC3)cc1)[C@@H]1CC[C@H]2O1`, the IC50 in [1] was 28.7 µM; in [2] it was 16.3 µM; in data set [3], 52.1 µM; in data set [4], 39.2 µM; in data set [6], 43.5 µM. Also, the logP in [5] stood at 0.9.
